{"source": "patent US9079901B2", "about": "“Fused heterocyclic compounds as ion channel modulators” (Gilead Sciences, Inc., priority 2010, dated 2015)", "target": "wild-type human cardiac sodium channel, hNav1.5 (late sodium current) in HEK293 cells (Homo sapiens, UniProt Q14524)", "sequence (Q14524 whole entry)": "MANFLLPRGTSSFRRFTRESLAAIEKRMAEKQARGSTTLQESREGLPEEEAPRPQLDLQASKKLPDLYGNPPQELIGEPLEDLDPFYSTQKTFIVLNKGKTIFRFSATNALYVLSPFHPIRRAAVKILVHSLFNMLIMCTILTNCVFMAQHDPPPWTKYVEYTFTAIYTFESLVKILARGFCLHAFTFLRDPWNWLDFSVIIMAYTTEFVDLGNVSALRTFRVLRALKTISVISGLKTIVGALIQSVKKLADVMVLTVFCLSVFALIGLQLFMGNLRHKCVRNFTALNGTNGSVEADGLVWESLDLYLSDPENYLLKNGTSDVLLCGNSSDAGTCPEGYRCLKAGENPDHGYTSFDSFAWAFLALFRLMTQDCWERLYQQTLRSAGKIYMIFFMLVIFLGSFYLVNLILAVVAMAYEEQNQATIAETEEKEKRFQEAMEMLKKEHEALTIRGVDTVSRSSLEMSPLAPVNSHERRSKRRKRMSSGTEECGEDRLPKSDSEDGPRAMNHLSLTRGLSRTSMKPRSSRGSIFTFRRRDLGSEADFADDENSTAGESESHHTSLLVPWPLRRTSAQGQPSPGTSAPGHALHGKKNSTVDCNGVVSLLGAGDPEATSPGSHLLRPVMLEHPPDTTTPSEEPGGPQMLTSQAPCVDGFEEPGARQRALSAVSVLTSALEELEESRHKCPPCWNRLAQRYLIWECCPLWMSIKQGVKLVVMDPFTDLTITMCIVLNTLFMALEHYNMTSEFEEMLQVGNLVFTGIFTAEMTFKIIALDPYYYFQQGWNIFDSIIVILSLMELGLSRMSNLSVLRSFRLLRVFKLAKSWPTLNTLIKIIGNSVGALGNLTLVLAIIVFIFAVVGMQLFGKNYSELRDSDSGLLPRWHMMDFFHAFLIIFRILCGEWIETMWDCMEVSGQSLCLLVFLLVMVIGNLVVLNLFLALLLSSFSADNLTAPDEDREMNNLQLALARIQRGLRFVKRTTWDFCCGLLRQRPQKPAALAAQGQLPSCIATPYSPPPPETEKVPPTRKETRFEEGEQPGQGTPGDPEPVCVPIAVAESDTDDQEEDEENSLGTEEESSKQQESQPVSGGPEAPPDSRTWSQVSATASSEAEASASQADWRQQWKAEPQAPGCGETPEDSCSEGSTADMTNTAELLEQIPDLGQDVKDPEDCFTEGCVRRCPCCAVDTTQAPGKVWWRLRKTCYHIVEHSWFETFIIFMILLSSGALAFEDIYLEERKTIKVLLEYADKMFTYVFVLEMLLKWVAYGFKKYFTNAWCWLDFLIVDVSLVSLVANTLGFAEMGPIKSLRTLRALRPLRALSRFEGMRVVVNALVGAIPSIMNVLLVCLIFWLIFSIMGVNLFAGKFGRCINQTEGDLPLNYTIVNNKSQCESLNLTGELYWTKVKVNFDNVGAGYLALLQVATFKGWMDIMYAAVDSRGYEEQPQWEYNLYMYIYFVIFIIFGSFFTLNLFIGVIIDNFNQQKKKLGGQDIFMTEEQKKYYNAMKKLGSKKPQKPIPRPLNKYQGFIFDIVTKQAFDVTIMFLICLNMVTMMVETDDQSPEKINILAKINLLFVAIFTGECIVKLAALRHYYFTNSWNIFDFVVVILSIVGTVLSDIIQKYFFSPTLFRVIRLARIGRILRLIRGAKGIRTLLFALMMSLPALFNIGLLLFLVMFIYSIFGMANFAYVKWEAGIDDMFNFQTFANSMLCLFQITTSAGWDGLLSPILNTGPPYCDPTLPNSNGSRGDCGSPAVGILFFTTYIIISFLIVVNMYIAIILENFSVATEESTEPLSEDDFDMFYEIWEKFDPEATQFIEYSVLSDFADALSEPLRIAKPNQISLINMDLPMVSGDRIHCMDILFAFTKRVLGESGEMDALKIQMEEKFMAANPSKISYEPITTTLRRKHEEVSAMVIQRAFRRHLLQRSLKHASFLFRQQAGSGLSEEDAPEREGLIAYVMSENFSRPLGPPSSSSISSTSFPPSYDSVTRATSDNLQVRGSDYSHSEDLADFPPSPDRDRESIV", "assay": "Late INa screening assay (automated whole-cell patch clamp, PatchXpress)", "format": "cell-based", "details": "HEK293, compound at 1 μM; late INa generated with 10 μM Tefluthrin (or 50 nM ATX II); HEK293 hNav1.5; read-out: Late INa 1 μM (percent block of late INa)", "outline": "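hNav1.5-expressing HEK293 cells (no β subunits) were recorded by automated whole-cell patch clamp at 24–27 °C with CsF-based internal solution. Late current was induced by 10 μM tefluthrin (or 50 nM ATX II) and evoked by 250 ms steps from −120 to −20 mV at 0.1 Hz. Compounds, typically 10 μM, were applied in three additions over 7–8 min; mean current at 225–250 ms, normalised to 0Na baseline, gave percent block.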"}
{"molecule": "Cc1cc(C)nc(OCCn2nc3ccc(-c4ccc(OC(F)(F)F)cc4)cn3c2=O)n1", "note": "[compound 88, 2-(2-(4,6-dimethylpyrimidin-2-yloxy)ethyl)-6-(4-(trifluoromethoxy)phenyl)-[1,2,4]triazolo[4,3-a]pyridin-3(2H)-one]", "values": [{"measurement": "inhibition at 1 µM", "result": 20.8, "unit": "%"}]}
{"molecule": "Cc1noc(Cn2nc3ccc(-c4ccc(OC(F)(F)F)cc4)c(C)n3c2=O)n1", "note": "[compound 188, 5-methyl-2-((3-methyl-1,2,4-oxadiazol-5-yl)methyl)-6-(4-(trifluoromethoxy)phenyl)-[1,2,4]triazolo[4,3-a]pyridin-3(2H)-one]", "values": [{"measurement": "inhibition at 1 µM", "result": 17.3, "unit": "%"}]}
{"molecule": "CC(=O)OCc1nc(Cn2nc3ccc(-c4ccc(OC(F)(F)F)cc4)cn3c2=O)no1", "note": "[compound 94, (3-((3-oxo-6-(4-(trifluoromethoxy)phenyl)-[1,2,4]triazolo[4,3-a]pyridin-2(3H)-yl)methyl)-1,2,4-oxadiazol-5-yl)methyl acetate]", "values": [{"measurement": "inhibition at 1 µM", "result": 28.2, "unit": "%"}]}
{"molecule": "O=c1n(CCCOc2cnccn2)nc2ccc(-c3ccc(OC(F)(F)F)cc3)cn12", "note": "[compound 85, 2-(3-(pyrazin-2-yloxy)propyl)-6-(4-(trifluoromethoxy)phenyl)-[1,2,4]triazolo[4,3-a]pyridin-3(2H)-one]", "values": [{"measurement": "inhibition at 1 µM", "result": 12.2, "unit": "%"}]}
{"molecule": "Cc1c(-c2ccc(OC(F)(F)F)cc2)ccc2n[nH]c(=O)n12", "note": "[compound 187, 5-methyl-6-(4-(trifluoromethoxy)phenyl)-[1,2,4]triazolo[4,3-a]pyridin-3(2H)-one]", "values": [{"measurement": "inhibition at 1 µM", "result": 29.8, "unit": "%"}]}
{"molecule": "COc1ccccc1OCCCn1nc2ccc(-c3ccc(OC(F)(F)F)cc3)cn2c1=O", "note": "[compound 37, 2-(3-(2-methoxyphenoxy)propyl)-6-(4-(trifluoromethoxy)phenyl)-[1,2,4]triazolo[4,3-a]pyridin-3(2H)-one]", "values": [{"measurement": "inhibition at 1 µM", "result": 34.5, "unit": "%"}]}
{"molecule": "O=c1n(CCOc2cccc(C(F)(F)F)n2)nc2ccc(-c3ccc(OC(F)(F)F)cc3)cn12", "note": "[compound 65, 6-(4-(trifluoromethoxy)phenyl)-2-(2-(6-(trifluoromethyl)pyridin-2-yloxy)ethyl)-[1,2,4]triazolo[4,3-a]pyridin-3(2H)-one]", "values": [{"measurement": "inhibition at 1 µM", "result": 21.1, "unit": "%"}]}
{"molecule": "O=c1n(C2COCC2Oc2ncccn2)nc2ccc(-c3ccc(OC(F)(F)F)cc3)cn12", "note": "(centres unmarked) [compound 109, 2-(4-(pyrimidin-2-yloxy)tetrahydrofuran-3-yl)-6-(4-(trifluoromethoxy)phenyl)-[1,2,4]triazolo[4,3-a]pyridin-3(2H)-one]", "values": [{"measurement": "inhibition at 1 µM", "result": 12.9, "unit": "%"}]}
{"molecule": "O=c1n(CC(O)COc2ccccc2)nc2ccc(-c3ccc(OC(F)(F)F)cc3)cn12", "note": "(centres unmarked) [compound 43, 2-(2-hydroxy-3-phenoxypropyl)-6-(4-(trifluoromethoxy)phenyl)-[1,2,4]triazolo[4,3-a]pyridin-3(2H)-one]", "values": [{"measurement": "inhibition at 1 µM", "result": 19.3, "unit": "%"}]}
{"molecule": "COc1ccccc1OCC(Cn1nc2ccc(-c3ccc(OC(F)(F)F)cc3)cn2c1=O)OC", "note": "(centres unmarked) [compound 23, 2-(2-methoxy-3-(2-methoxyphenoxy)propyl)-6-(4-(trifluoromethoxy)phenyl)-[1,2,4]triazolo[4,3-a]pyridin-3(2H)-one]", "values": [{"measurement": "inhibition at 1 µM", "result": 55.1, "unit": "%"}]}
{"molecule": "COc1cc(F)ccc1OCC(O)Cn1nc2ccc(-c3ccc(OC(F)(F)F)cc3)cn2c1=O", "note": "(centres unmarked) [compound 98, 2-(3-(4-fluoro-2-methoxyphenoxy)-2-hydroxypropyl)-6-(4-(trifluoromethoxy)phenyl)-[1,2,4]triazolo[4,3-a]pyridin-3(2H)-one]", "values": [{"measurement": "inhibition at 1 µM", "result": 23.2, "unit": "%"}]}
{"molecule": "O=c1n(CC2CCc3ccccc3O2)nc2ccc(-c3ccc(OC(F)(F)F)cc3)cn12", "note": "(centres unmarked) [compound 77, 2-(chroman-2-ylmethyl)-6-(4-(trifluoromethoxy)phenyl)-[1,2,4]triazolo[4,3-a]pyridin-3(2H)-one]", "values": [{"measurement": "inhibition at 1 µM", "result": 32.1, "unit": "%"}]}
{"molecule": "O=c1n(Cc2noc(CO)n2)nc2ccc(-c3ccc(Oc4ccc(F)cc4)cc3)cn12", "note": "[compound 146, 6-(4-(4-fluorophenoxy)phenyl)-2-((5-(hydroxymethyl)-1,2,4-oxadiazol-3-yl)methyl)-[1,2,4]triazolo[4,3-a]pyridin-3(2H)-one]", "values": [{"measurement": "inhibition at 1 µM", "result": 32.6, "unit": "%"}]}
{"molecule": "Cc1nonc1Cn1nc2ccc(-c3ccc(OC(F)(F)F)cc3)cn2c1=O", "note": "[compound 2, 2-((4-methyl-1,2,5-oxadiazol-3-yl)methyl)-6-(4-(trifluoromethoxy)phenyl)-[1,2,4]triazolo[4,3-a]pyridin-3(2H)-one]", "values": [{"measurement": "inhibition at 1 µM", "result": 41.3, "unit": "%"}]}
